ChEMBL document CHEMBL5365453, “Synthesis and biological evaluation of xanthine derivatives with phenacyl group as tryptophan hydroxylase 1 (TPH1) inhibitors for obesity and fatty liver disease” (Bioorg Med Chem Lett, 2023)
Activity calls are given as the source filed them. The calls are words filed in the database; no cut-off is given here.

How the values were obtained:
[1] = target: T1, Tryptophan 5-hydroxylase 1 (Homo sapiens) (UniProt P17752); experiment: Inhibition of TPH1 ( unknown origin ) at 1 uM relative to control
T1 sequence (whole entry): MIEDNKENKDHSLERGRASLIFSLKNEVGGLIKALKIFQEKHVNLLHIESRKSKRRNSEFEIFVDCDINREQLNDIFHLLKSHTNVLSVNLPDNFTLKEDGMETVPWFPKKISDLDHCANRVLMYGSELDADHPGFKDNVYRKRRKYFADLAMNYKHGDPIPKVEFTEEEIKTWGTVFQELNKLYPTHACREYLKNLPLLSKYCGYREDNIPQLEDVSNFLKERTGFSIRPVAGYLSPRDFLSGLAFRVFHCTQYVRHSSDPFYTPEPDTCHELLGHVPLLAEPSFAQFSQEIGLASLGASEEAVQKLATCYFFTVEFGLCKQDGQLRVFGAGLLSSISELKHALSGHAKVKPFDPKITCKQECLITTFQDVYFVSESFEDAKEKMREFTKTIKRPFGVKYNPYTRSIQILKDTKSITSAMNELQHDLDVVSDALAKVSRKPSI

[2] = target: T2, Tryptophan 5-hydroxylase 1 (Homo sapiens, UniProt P17752); experiment: Inhibition of TPH1 ( unknown origin )
T2 sequence (P17752 whole entry): T1 sequence (whole entry)

[3] = Stability in human liver microsomes assessed as compound remaining measured after 30 mins; format: ADME, Microsome; settings: read-out: Stability
[4] = Stability in mouse liver microsomes assessed as compound remaining measured after 30 mins; format: ADME, Microsome; settings: read-out: Stability
[5] = target: T3, Tryptophan 5-hydroxylase 1 (Mus musculus) (UniProt P17532); experiment: Inhibition of TPH1 in mouse 3T3-L1 cells assessed as suppression of insulin-induced adipocyte differentiation by measuring reduction in lipid droplet accumulation at 1 to 2 uM measured on day 7 post-adipogenesis induction by oil red O staining based phase-contrast light microscopy; format: cell-based; settings: dose 1-2 µM, time 7.0 day
T3 sequence (whole entry): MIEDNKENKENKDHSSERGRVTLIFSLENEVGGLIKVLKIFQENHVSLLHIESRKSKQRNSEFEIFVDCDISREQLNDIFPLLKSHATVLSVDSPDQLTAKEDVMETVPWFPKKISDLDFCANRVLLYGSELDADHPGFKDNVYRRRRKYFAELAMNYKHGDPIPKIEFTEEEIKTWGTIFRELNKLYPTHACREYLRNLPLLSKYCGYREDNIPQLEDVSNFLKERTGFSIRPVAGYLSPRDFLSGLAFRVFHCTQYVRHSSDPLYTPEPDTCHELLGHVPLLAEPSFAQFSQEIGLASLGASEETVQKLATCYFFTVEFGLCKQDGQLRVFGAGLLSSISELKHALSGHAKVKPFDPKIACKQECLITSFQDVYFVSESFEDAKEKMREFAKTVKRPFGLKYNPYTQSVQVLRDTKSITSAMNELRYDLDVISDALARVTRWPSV

[6] = target: T3, Tryptophan 5-hydroxylase 1 (Mus musculus); experiment: Inhibition of TPH1 in mouse 3T3-L1 cells assessed as suppression of insulin-induced adipocyte differentiation by measuring reduction in lipid droplet accumulation at 1 to 2 uM measured on day 7 post-adipogenesis induction by oil red O staining based spectrophotometry; format: cell-based; settings: dose 1-2 µM, time 7.0 day

SMILES: CCn1c(=O)[nH]c(=O)c2c1nc(Cc1cn3ccsc3n1)n2CC(=O)c1ccccc1
- inhibition [1]: 39.4%

SMILES: CCn1c(=O)[nH]c(=O)c2c1nc(Cc1cn3ccsc3n1)n2CC(=O)c1ccc(N)cc1
- IC50 [2]: 168 nM
- inhibition [1]: 87.8%
- remaining at 0.5 h [3]: 95.3%
- remaining at 0.5 h [4]: 80.8%

SMILES: CCn1c(=O)[nH]c(=O)c2c1nc(Cn1ccnc1)n2Cc1ccccc1
- inhibition [1]: 0%

SMILES: CCn1c(=O)[nH]c(=O)c2c1nc(Cc1cn3ccsc3n1)n2CC(=O)c1ccc(Br)cc1
- inhibition [1]: 47.2%

SMILES: CCn1c(=O)[nH]c(=O)c2c1nc(Cc1cn3ccsc3n1)n2C/C(=N/O)c1ccc(OC)cc1
- inhibition [1]: 25.5%

SMILES: CCn1c(=O)[nH]c(=O)c2c1nc(Cc1cn3ccsc3n1)n2CC(=O)c1ccc(-c2ccccc2)cc1
- inhibition [1]: 32.6%

SMILES: CCn1c(=O)[nH]c(=O)c2c1nc(Cc1cn3ccsc3n1)n2CC(=O)c1cccc(OC)c1
- inhibition [1]: 38.9%

SMILES: CCn1c(=O)[nH]c(=O)c2c1nc(Cc1cn3ccsc3n1)n2CC(=O)c1ccc(N=[N+]=[N-])cc1
- inhibition [1]: 87.9%

SMILES: CCn1c(=O)[nH]c(=O)c2c1nc(Cc1cn3ccsc3n1)n2CC(=O)c1ccc(O)cc1
- IC50 [2]: 110 nM
- inhibition [1]: 94.3%
- remaining at 0.5 h [3]: 80.4%
- remaining at 0.5 h [4]: 77.3%
- inhibition [5]: Active
- inhibition [6]: Active

SMILES: CCn1c(=O)[nH]c(=O)c2c1nc(Cc1cn3ccsc3n1)n2CC(=O)c1ccc(OC)cc1
- IC50 [2]: 182 nM
- inhibition [1]: 91.4%
- remaining at 0.5 h [3]: 69%
- remaining at 0.5 h [4]: 30%

SMILES: CCn1c(=O)[nH]c(=O)c2c1nc(Cc1cn3ccsc3n1)n2CC(O)c1ccc(Cl)cc1 (centres undefined)
- inhibition [1]: 0%

SMILES: CCn1c(=O)[nH]c(=O)c2c1nc(Cc1cn3ccsc3n1)n2CC(=O)c1ccccc1OC
- inhibition [1]: 0.3%

SMILES: CCn1c(=O)[nH]c(=O)c2c1nc(Cc1cn3ccsc3n1)n2CC(=O)c1ccc(Cl)cc1
- inhibition [1]: 66%

SMILES: CCn1c(=O)[nH]c(=O)c2c1nc(Cc1cn3ccsc3n1)n2CC(=O)Nc1ccc(OC)cc1
- inhibition [1]: 4.1%

SMILES: CCn1c(=O)[nH]c(=O)c2c1nc(Cn1cnc3ccccc31)n2Cc1ccccc1
- inhibition [1]: 0%

SMILES: CCn1c(=O)[nH]c(=O)c2c1nc(Cc1cn3ccsc3n1)n2CC(=O)c1ccc(C(F)(F)F)cc1
- inhibition [1]: 47.5%

SMILES: CCn1c(=O)[nH]c(=O)c2c1nc(Cc1cn3ccsc3n1)n2CC(=O)c1ccc(F)cc1
- inhibition [1]: 62.6%

SMILES: CCn1c(=O)[nH]c(=O)c2c1nc(C)n2Cc1ccccc1
- inhibition [1]: 0%

SMILES: CCn1c(=O)n(Cc2ccccc2)c(=O)c2c1nc(Cc1cn3ccsc3n1)n2Cc1ccccc1
- inhibition [1]: 6.2%

SMILES: CCn1c(=O)[nH]c(=O)c2c1nc(Cc1cn3ccsc3n1)n2CC(=O)c1ccc(CO)cc1
- IC50 [2]: 277 nM
- inhibition [1]: 83%
- remaining at 0.5 h [3]: 91.5%
- remaining at 0.5 h [4]: 85.2%

SMILES: CCn1c(=O)[nH]c(=O)c2c1nc(Cc1cn3ccsc3n1)n2Cc1ccccc1
- IC50 [2]: 1160 nM
- inhibition [1]: 48.6%

SMILES: CCn1c(=O)[nH]c(=O)c2c1nc(Cc1cn3ccsc3n1)n2CC(=O)c1ccc(OC(C)=O)cc1
- inhibition [1]: 80.8%

SMILES: CCn1c(=O)[nH]c(=O)c2[nH]c(Cc3cn4ccsc4n3)nc21
- inhibition [1]: 10.2%

SMILES: CCn1c(=O)[nH]c(=O)c2c1nc(Cc1ccccc1)n2Cc1ccccc1
- inhibition [1]: 0%
